Data: US10766899B2, “Methods for preparing substituted imidazo[4,5-b]pyrazines” (Cytokinetics, Inc., priority 2006, dated 2020)
Values joined by “and” are separate entries in the source; they are usually repeats but may differ in a detail not shown here. Identical values can stand only once.

Test system: SKM MF
Assay: SKM MF AC1.4: ATPase of skeletal sarcomeric proteins (actin, tropomyosin, troponin complex, myosin), PK/LDH coupled enzyme system
Assay type: biochemical
Conditions: screen at pCa=6.5, † mean value, ‡ median value
Description: For example, test compounds can be assayed in a highly parallel fashion by using multiwell plates by placing the compounds either individually in wells or testing them in mixtures. Assay components including the target protein complex, coupling enzymes and substrates, and ATP can then be added to the wells and the absorbance or fluorescence of each well of the plate can be measured with a plate reader.
In some embodiments, the method uses a 384 well plate format and a 25 μL reaction volume. A pyruvate kinase/lactate dehydrogenase coupled enzyme system (Huang T G and Hackney D D. (1994) J Biol Chem 269(23):16493-501) can be used to measure the rate of ATP hydrolysis in each well. As will be appreciated by those in the art, the assay components are added in buffers and reagents. The incubation periods can be optimized to give adequate detection signals over the background. The assay can be done in real time giving the kinetics of ATP hydrolysis which increases the signal to noise ratio of the assay.
Actin was purified by first preparing an ether powder of cardiac muscle (Zot H G and Potter J D. (1981) Preparative Biochemistry 11:381-395) as described below. Subsequently, actin was cycled between the filamentous and soluble state through rounds of centrifugation and dialysis (Spudich J A and Watt S. (1971) J. Biol. Chem. 246:4866-4871). It was stored in the filamentous state at 4° C.
Tropomyosin was extracted from the ether powder and separated from the other proteins based on pH dependent precipitations followed by successive ammonium sulfate cuts at 53% and 65% (Smillie L B. (1981) Methods Enzymol 85 Pt B:234-41). The troponins were isolated as an intact complex of TnC, TnT, and TnI. Ether powder is extracted in a high salt buffer. Successive ammonium sulfate cuts of 30% and 45% were done; the precipitate was solubilized by dialysis into a low salt buffer and then further purified on a DEAE Toyopearl column with a 25-350 mM KCl gradient.
Just prior to screening, the actin, tropomyosin, and troponin complex are mixed together in the desired ratio (e.g., 7:1:1) to achieve maximal calcium regulation of the actin filament. The screen is conducted at a pCa=6.5. This calcium concentration is in the physiological range during muscle contraction.
To measure the generation of ADP during the reaction, a pyruvate kinase/lactate dehydrogenase/NADH coupled enzyme system (PK/LDH) is added to the actin. The myosin is kept separately. The plates are read in real time so that kinetic curves are obtained. These compounds are in DMSO and were already spotted onto the bottoms of 384 well plates at 10 to 40 μg/ml final concentration.
• 1. Obtain ˜1000 g skeletal muscle, such as rabbit skeletal muscle. • 2. Grind twice; extract with 2 L solution A for 15 min while stirring; add 4 L cold H2O, filter through gauze; dilute with cold H2O to ionic strength of 0.04, (about 10-fold); let settle for 3 h; collect precipitate at 7,000 rpm in GSA rotor for 15 min. • 3. Disperse pellet in 220 ml solution B; dialyze overnight against 6 L solution C; slowly add ˜400 ml equal volume cold distilled H2O; stir for 30 min; centrifuge at 10,000 rpm for 10 min in GSA rotor. • 4. Centrifuge supernatant at 19,000 rpm for 1 h. • 5. Dilute supernatant to ionic strength of 0.04 (˜8-fold); let myosin settle overnight; collect about 5-6 L fluffy myosin precipitate by centrifuging at 10,000 rpm for 10 min in GSA rotor. • 6. Resuspend pellet in minimal volume of solution G; dialyze overnight against 2 L solution D; centrifuge at 19,000 rpm for 2 h, in cellulose nitrate tubes; puncture tubes and separate myosin from fat and insoluble pellet. • 7. Dilute supernatant to 5-10 mg/ml and dialyze against solution E extensively, load onto DEAE-sephadex column. • 8. […]

Row | Compound | SKM MF AC1.4 | other results
1 | CCC(CN)n1c(O)nc2ncc(Br)nc21 (centres unmarked) [1-(1-aminobutan-2-yl)-6-bromo-1H-imidazo[4,5-b]pyrazin-2-ol] | 1.1 µM | 
2 | CCC(CN1CCN(S(C)(=O)=O)CC1)n1c(O)nc2ncc(Br)nc21 (centres unmarked) [6-bromo-1-(1-(4-(methylsulfonyl)piperazin-1-yl)butan-2-yl)-1H-imidazo[4,5-b]pyrazin-2-ol] | 3.2^† μM | 
3 | C/C=C/c1cnc2nc(O)n([C@@H](C)c3ccccc3)c2n1 [(S,E)-1-(1-phenylethyl)-6-(prop-1-enyl)-1H-imidazo[4,5-b]pyrazin-2-ol] | 1.6 µM | 
4 | CCC(CC)n1c(O)nc2nccnc21 [1-(pentan-3-yl)-1H-imidazo[4,5-b]pyrazin-2-ol] | 16.0^† μM | 
5 | CC(C)(CN1CCOCC1)n1c(O)nc2ncc(Br)nc21 [6-bromo-1-(2-methyl-1-morpholinopropan-2-yl)-1H-imidazo[4,5-b]pyrazin-2-ol] | 16.4^‡ μM | SKM MF AC1.4 (listed as 1-(1,1-dimethyl-2-morpholin-4-ylethyl)-6-bromoimidazo[4,5-b]pyrazin-2-ol): 19.11 µM; SKM MF AC1.4 (listed as 6-bromo-1-(2-methyl-1-morpholinopropan-2-yl)-1H-imidazo[4,5-b]pyrazin-2(3H)-one): 16.4^‡ μM
6 | CCC(CC)n1c(O)nc2ncc(C)nc21 [6-methyl-1-(pentan-3-yl)-1H-imidazo[4,5-b]pyrazin-2-ol] | 0.53 µM | 
7 | 1-(ethylpropyl)-6-(1-methylvinyl)imidazo[4,5-b]pyrazin-2-ol | 0.6 µM | 
8 | CCC(CC)n1c(O)nc2ncc(Br)nc21 [6-bromo-1-(pentan-3-yl)-1H-imidazo[4,5-b]pyrazin-2-ol] | 0.25 µM | 
9 | CCC(CC)n1c(O)nc2ncc(C#N)nc21 [2-hydroxy-1-(pentan-3-yl)-1H-imidazo[4,5-b]pyrazine-6-carbonitrile] | 36.4 µM | 
10 | CCC(CC)n1c(O)nc2ncc(N(C)C)nc21 [6-(dimethylamino)-1-(pentan-3-yl)-1H-imidazo[4,5-b]pyrazin-2-ol] | 2.2 µM and 2.79 µM | 
11 | CSc1cnc2nc(O)n(C3CCCCC3)c2n1 [1-cyclohexyl-6-(methylthio)-1H-imidazo[4,5-b]pyrazin-2-ol] | 13.9 µM | 
12 | CCC(CC)n1c(O)nc2ncc(C(F)(F)F)nc21 [1-(pentan-3-yl)-6-(trifluoromethyl)-1H-imidazo[4,5-b]pyrazin-2-ol] | 10.4^‡ μM | SKM MF AC1.4 (listed as 1-(ethylpropyl)-6-(trifluoromethyl)imidazo[4,5-b]pyrazin-2-ol): 10.37 µM; SKM MF AC1.4 (listed as 1-(pentan-3-yl)-6-(trifluoromethyl)-1H-imidazo[4,5-b]pyrazin-2(3H)-one): 10.4^‡ μM
13 | 1-(ethylpropyl)-6-(methylethyl)imidazo[4,5-b]pyrazin-2-ol | 29.6 µM | 
14 | CCC(CN1CCN(C)CC1)n1c(O)nc2ncc(Br)nc21 (centres unmarked) [6-bromo-1-(1-(4-methylpiperazin-1-yl)butan-2-yl)-1H-imidazo[4,5-b]pyrazin-2-ol] | 14.9 µM | 
15 | CC#Cc1cnc2nc(O)n(C(CC)CC)c2n1 [1-(pentan-3-yl)-6-(prop-1-ynyl)-1H-imidazo[4,5-b]pyrazin-2-ol] | >49 µM | 
16 | CCC(COC)n1c(O)nc2ncc(Br)nc21 (centres unmarked) [6-bromo-1-(1-methoxybutan-2-yl)-1H-imidazo[4,5-b]pyrazin-2-ol] | 4.9 µM | 
17 | CCC(CC)n1c(O)nc2nc3ccccc3nc21 [1-(pentan-3-yl)-1H-imidazo[4,5-b]quinoxalin-2-ol] | 19.8 µM | 
18 | 1-(ethylpropyl)-6-{2-[1-(ethylpropyl)-2-hydroxyimidazo[4,5-e]pyrazin-6-yl]ethynyl}imidazo[4,5-b]pyrazin-2-ol | 19.32 µM | 
19 | CCC(CC)n1c(O)nc2nc(Br)cnc21 [5-bromo-1-(pentan-3-yl)-1H-imidazo[4,5-b]pyrazin-2-ol] | 11.5 µM | 
20 | CC(C)(C)n1c(O)nc2ncc(Br)nc21 [6-bromo-1-tert-butyl-1H-imidazo[4,5-b]pyrazin-2-ol] | 0.8 µM | 
21 | CCC(CNC)n1c(O)nc2ncc(Br)nc21 (centres unmarked) [6-bromo-1-(1-(methylamino)butan-2-yl)-1H-imidazo[4,5-b]pyrazin-2-ol] | 45.7 µM | 
22 | CCC(C(=O)N1CCOCC1)n1c(O)nc2ncc(Br)nc21 (centres unmarked) [2-(6-bromo-2-hydroxy-1H-imidazo[4,5-b]pyrazin-1-yl)-1-morpholinobutan-1-one] | >49 µM | 

Now from value to compound, other results behind:

Row | SKM MF AC1.4 | Compound | other results
23 | 29.7 µM | CCCc1cnc2nc(O)n([C@@H](C)c3ccccc3)c2n1 [(S)-1-(1-phenylethyl)-6-propyl-1H-imidazo[4,5-b]pyrazin-2-ol] | 
24 | 31.0 µM | C[C@@H](c1ccccc1)n1c(O)nc2ncc(C3=CCCCC3)nc21 [(S)-6-cyclohexenyl-1-(1-phenylethyl)-1H-imidazo[4,5-b]pyrazin-2-ol] | 
25 | 10.6 µM | CCOc1cnc2nc(O)n([C@@H](C)c3ccccc3)c2n1 [(S)-6-ethoxy-1-(1-phenylethyl)-1H-imidazo[4,5-b]pyrazin-2-ol] | 
26 | 1.0 µM | C/C=C\c1cnc2nc(O)n([C@@H](C)c3ccccc3)c2n1 [(S,Z)-1-(1-phenylethyl)-6-(prop-1-enyl)-1H-imidazo[4,5-b]pyrazin-2-ol] | 
27 | 8.8 µM | COc1cnc2nc(O)n([C@@H](C)c3ccccc3)c2n1 [(S)-6-methoxy-1-(1-phenylethyl)-1H-imidazo[4,5-b]pyrazin-2-ol] | 
28 | >49 µM | C[C@@H](CN1CCOCC1)n1c(O)nc2ncc(Br)nc21 [(S)-6-bromo-1-(1-morpholinopropan-2-yl)-1H-imidazo[4,5-b]pyrazin-2-ol] | 
29 | 1.1 µM | CSc1cnc2nc(O)n([C@@H](C)c3ccccc3)c2n1 [(S)-6-(methylthio)-1-(1-phenylethyl)-1H-imidazo[4,5-b]pyrazin-2-ol] | 
30 | 6.1 µM | C/C=C/c1cnc2nc(O)n(C3CCCCC3)c2n1 [(E)-1-cyclohexyl-6-(prop-1-enyl)-1H-imidazo[4,5-b]pyrazin-2-ol] | 
31 | 19.1 µM | CC[C@@H](CO)n1c(O)nc2ncc(Br)nc21 [(S)-6-bromo-1-(1-hydroxybutan-2-yl)-1H-imidazo[4,5-b]pyrazin-2-ol] | 
32 | 17.4 µM | CCc1cnc2nc(O)n([C@@H](C)c3ccccc3)c2n1 [(S)-1-(1-phenylethyl)-6-ethyl-1H-imidazo[4,5-b]pyrazin-2-ol] | 
33 | 1.1 µM | CC[C@H](CO)n1c(O)nc2ncc(Br)nc21 [(R)-6-bromo-1-(1-hydroxybutan-2-yl)-1H-imidazo[4,5-b]pyrazin-2-ol] | 
34 | 1.5 µM | CC[C@@H](C)n1c(O)nc2ncc(Br)nc21 [(R)-6-bromo-1-sec-butyl-1H-imidazo[4,5-b]pyrazin-2-ol] | 
35 | 6.0 µM | C/C=C\c1cnc2nc(O)n(C3CCCCC3)c2n1 [(Z)-1-cyclohexyl-6-(prop-1-enyl)-1H-imidazo[4,5-b]pyrazin-2-ol] | 
36 | 0.6 µM | C/C=C\c1cnc2nc(O)n(C(CC)CC)c2n1 [(Z)-1-(pentan-3-yl)-6-(prop-1-enyl)-1H-imidazo[4,5-b]pyrazin-2-ol] | 
37 | 5.2^‡ μM | C[C@H](CN1CCOCC1)n1c(O)nc2ncc(Br)nc21 [(R)-6-bromo-1-(1-morpholinopropan-2-yl)-1H-imidazo[4,5-b]pyrazin-2-ol] | SKM MF AC1.4 (listed as 1-((1R)-1-methyl-2-morpholin-4-ylethyl)-6-bromoimidazo[4,5-b]pyrazin-2-ol): 5.19 µM; SKM MF AC1.4 (listed as (R)-6-bromo-1-(1-morpholinopropan-2-yl)-1H-imidazo[4,5-b]pyrazin-2(3H)-one): 5.2^‡ μM
38 | >49 µM | CC[C@@H](CN1CCOCC1)n1c(O)nc2ncc(Br)nc21 [(S)-6-bromo-1-(1-morpholinobutan-2-yl)-1H-imidazo[4,5-b]pyrazin-2-ol] | 
